In the assay the target is T1, VEGFR/KDR (Homo sapiens, UniProt P35968).
T1 construct: made in house; host or cells: Sf9 cells (Spodoptera frugiperda), baculovirus
T1 sequence (P35968 806-1356): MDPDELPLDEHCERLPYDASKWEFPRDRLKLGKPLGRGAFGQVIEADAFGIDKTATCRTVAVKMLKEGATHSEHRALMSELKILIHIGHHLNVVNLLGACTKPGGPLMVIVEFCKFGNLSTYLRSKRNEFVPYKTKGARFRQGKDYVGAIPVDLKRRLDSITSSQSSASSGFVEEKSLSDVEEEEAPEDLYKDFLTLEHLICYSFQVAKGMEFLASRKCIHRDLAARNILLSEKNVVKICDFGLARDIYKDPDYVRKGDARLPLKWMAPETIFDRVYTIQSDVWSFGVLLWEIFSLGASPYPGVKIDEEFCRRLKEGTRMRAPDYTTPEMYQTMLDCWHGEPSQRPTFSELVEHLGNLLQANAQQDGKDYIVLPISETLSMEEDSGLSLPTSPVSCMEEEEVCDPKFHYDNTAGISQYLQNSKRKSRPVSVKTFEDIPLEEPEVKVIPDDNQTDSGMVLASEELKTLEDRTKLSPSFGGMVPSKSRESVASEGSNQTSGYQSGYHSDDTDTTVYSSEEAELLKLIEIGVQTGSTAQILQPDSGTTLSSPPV
In words: VEGFR/KDR kinase inhibition, DELFIA assay. The class given is biochemical. The note with it: ATP 0.6 uM (2x Km), enzyme 5 nM. The gist of the method:
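Enzyme (5 nM) pre-incubated 4 min on ice with inhibitor and Mg-ATP (0.6 uM, 2× Km), then reacted 10-30 min at 30° C on immobilized poly(Glu4,Tyr). EDTA-quenched phosphotyrosine detected with Europium-labeled antibody by time-resolved fluorescence; IC50 from concentration series.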
Broadly, the IC50 is the concentration that gives 50% inhibition. Read a high IC50 as a need for much substance. The compound `CN1CCC(C(=O)N2CCN(Cc3ccc(-c4cc5nccc(Oc6ccc(NC(=O)NC7CC7)cc6F)c5s4)nc3)CC2)CC1` [Compound 539] registered an IC50 of less than 0.05 µM. The result for `COCCOCC(=O)N(CCOC)Cc1ccc(-c2cc3nccc(Oc4ccc(NC(=O)NC5CC5)cc4F)c3s2)cc1` [Compound 115, N-(4-(7-(4-(3-cyclopropylureido)-2-fluorophenoxy)thieno[3,2-b]pyridin-2-yl)benzyl)-2-(2-methoxyethoxy)-N-(2-methoxyethyl)acetamide] reads less than 0.05 µM.

`O=C(O)CNC(=O)NC1CN(Cc2ccc(-c3cc4nccc(Oc5ccc(NC(=O)NC6CC6)cc5F)c4s3)nc2)C1` [Compound 428] registered an IC50 of less than 0.05 µM. `O=C(O)CNC(=O)NC1CCN(Cc2ccc(-c3cc4nccc(Oc5ccc(NC(=O)NC6CC6)cc5F)c4s3)nc2)CC1` [Compound 426, 2-(3-(1-((6-(7-(4-(3-Cyclopropylureido)-2-fluorophenoxy)thieno[3,2-b]pyridin-2-yl)pyridin-3-yl)methyl)piperidin-4-yl)ureido)acetic acid] displayed an IC50 of less than 0.05 µM.

The compound `Cn1c(CN2CCOCC2)cnc1-c1cc2nccc(Oc3ccc(NC(=O)NC4CC4)cc3F)c2s1` [Compound 298] had an IC50 of less than 0.05 µM. Turning to `O=C(Nc1ccc(Oc2ccnc3cc(-c4ccc(CN5CC(C(=O)O)C5)cn4)sc23)c(F)c1)NC1CC1` [Compound 477, 1-((6-(7-(4-(3-cyclopropylureido)-2-fluorophenoxy)thieno[3,2-b]pyridin-2-yl)pyridin-3-yl)methyl)azetidine-3-carboxylic acid], the IC50 was less than 0.05 µM. `CCNC(=O)N1CCN(Cc2ccc(-c3cc4nccc(Oc5ccc(NC(=O)NC6CC6)cc5F)c4s3)nc2)C[C@@H]1C` [Compound 556] returned an IC50 of less than 0.05 µM. For the compound `O=C(O)COC1CCN(Cc2ccc(-c3cc4nccc(Oc5ccc(NC(=O)NC6CC6)cc5F)c4s3)nc2)CC1` [Compound 329, 2-(1-((6-(7-(4-(3-cyclopropylureido)-2-fluorophenoxy)thieno[3,2-b]pyridin-2-yl)pyridin-3-yl)mcthyI)piperidin-4-yloxy)acetic acid], the IC50 is less than 0.05 µM. `CN1CCN(Cc2ccc(-c3cc4nccc(Oc5ccc(NC(=O)NC6CC6)cc5F)c4s3)nc2)C1=O` [Compound 141, 1-cyclopropyl-3-(3-fluoro-4-(2-(5-((3-methyl-2-oxoimidazolidin-1-yl)methyl)pyridin-2-yl)thieno[3,2-b]pyridin-7-yloxy)phenyl)urea] gave an IC50 of less than 0.05 µM. Regarding `CN1CCN(CCn2cnc(-c3cc4nccc(Oc5ccc(NC(=O)NC6CC6)cc5F)c4s3)c2)CC1` [Compound 266, 1-Cyclopropyl-3-(3-fluoro-4-(2-(1-(2-(4-methylpiperazin-1-yl)ethyl)-1H-imidazol-4-yl)thieno[3,2-b]pyridin-7-yloxy)phenyl)urea], the IC50 was less than 0.05 µM.

In turn, `COCCN(Cc1ccc(-c2cc3nccc(Oc4ccc(NC(=O)NC5CC5)cc4F)c3s2)nc1)C(=O)NC(C)C` [Compound 190, 1-((6-(7-(4-cyclopropylaminocarbonylamino-2-fluorophenoxy)-thieno[3,2-b]pyridin-2-yl)pyridin-3-yl)methyl)-3-isopropyl-1-(2-methoxyethyl)urea] returned an IC50 of less than 0.05 µM.

`CCOC(=O)CN(C)C1CCN(Cc2ccc(-c3cc4nccc(Oc5ccc(NC(=O)NC6CC6)cc5F)c4s3)nc2)CC1` [Compound 422, Ethyl 2-((1-((6-(7-(4-(3-cyclopropylureido)-2-fluorophenoxy)thieno[3,2-b]pyridin-2-yl)pyridin-3-yl)methyl)piperidin-4-yl)(methyl)amino)acetate]: the IC50 is less than 0.05 µM. Compound `CCOC(=O)C1CCN(Cc2ccc(-c3cc4nccc(Oc5ccc(NC(=O)NC6CC6)cc5F)c4s3)nc2)CC1` [Compound 58, ethyl 1-((6-(7-(4-(3-cyclopropylureido)-2-fluorophenoxy)-thieno[3,2-b]pyridin-2-yl)pyridin-3-yl)methyl)piperidine-4-carboxylate] registered an IC50 of less than 0.05 µM.

For the compound `NC1CN(Cc2ccc(-c3cc4nccc(Oc5ccc(NC(=O)NC6CC6)cc5F)c4s3)nc2)C1` [Compound 402], the IC50 is less than 0.05 µM. Regarding `CC(C)NC(=O)Nc1ccc(Oc2ccnc3cc(-c4ccc(CN5CCCC5=O)cc4)sc23)c(F)c1` [Compound 205, 1-(3-fluoro-4-(2-(4-((2-oxopyrrolidin-1-yl)methyl)phenyl)thieno[3,2-b]pyridin-7-yloxy)phenyl)-3-isopropylurea], the IC50 was 0.05 to 0.1 µM. Compound `CCOC(=O)NC1CCN(Cc2ccc(-c3cc4nccc(Oc5ccc(NC(=O)NC6CC6)cc5F)c4s3)nc2)CC1` [Compound 351] came in with an IC50 of less than 0.05 µM.

`CCOC(=O)C1CCN(C(=O)c2cc3nccc(Oc4ccc(NC(=O)NC5CC5)cc4F)c3s2)CC1` [Compound 457] had an IC50 of 0.05 to 0.1 µM. `CCNC(=O)N(CCOC)Cc1ccc(-c2cc3nccc(Oc4ccc(NC(=S)NC5CC5)cc4F)c3s2)nc1` [Compound 503, 1-((6-(7-(4-(3-cyclopropylthioureido)-2-fluorophenoxy)thieno[3,2-b]pyridin-2-yl)pyridin-3-yl)methyl)-3-ethyl-1-(2-methoxyethyl)urea] came in with an IC50 of 0.05 to 0.1 µM.

In turn, `NC(=O)c1cccc(NC(=O)Nc2ccc(Oc3ccnc4cc(-c5ccc(CN6CCCC6=O)cn5)sc34)c(F)c2)c1` [Compound 106, 3-(3-(3-fluoro-4-(2-(5-((2-oxopyrrolidin-1-yl)methyl)pyridin-2-yl)thieno[3,2-b]pyridin-7-yloxy)phenyl)ureido)benzamide] displayed an IC50 of less than 0.05 µM. In the case of `COCCN(Cc1cnc(-c2cc3nccc(Oc4ccc(NC(=O)NC5CC5)cc4F)c3s2)n1C)C(=O)NC(C)C` [Compound 189], the half-inhibitory concentration (IC50) was less than 0.05 µM. In turn, `O=C(Nc1ccc(Oc2ccnc3cc(C(=O)N4CC(O)C4)sc23)c(F)c1)NC1CC1` [Compound 462] displayed an IC50 of less than 0.05 µM. In the case of “N-(4-(7-(4-(3-cyclopropylureido)-2-fluorophenoxy)thieno[3,2-b]pyridin-2-yl)benzyl)-2-(2-methoxyethoxy)-N-(2-methoxyethyl)acetamide [Compound 115]”, the IC50 was less than 0.05 µM. `O=C(Nc1ccc(Oc2ccnc3cc(-c4ccc(CN5CCN(CC(F)(F)F)CC5)cn4)sc23)c(F)c1)NC1CC1` [Compound 84, 1-cyclopropyl-3-(3-fluoro-4-(2-(5-((4-(2,2,2-trifluoroethyl)piperazin-1-yl)methyl)-pyridin-2-yl)thieno[3,2-b]pyridin-7-yloxy)phenyl)urea] registered an IC50 of less than 0.05 µM. For the compound `O=C(Nc1ccccc1)Nc1ccc(Oc2ccnc3cc(C#CCN4CCOCC4)sc23)c(F)c1` [Compound 120, 1-(3-fluoro-4-(2-(3-morpholinoprop-1-ynyl)thieno[3,2-b]pyridin-7-yloxy)phenyl)-3-phenylurea], the IC50 was 0.1 to 0.25 µM. `O=C(Nc1ccc(Oc2ccnc3cc(-c4ccc(CN5CC[C@@H](O)C5)cn4)sc23)c(F)c1)NC1CC1` [Compound 53, (R)-1-cyclopropyl-3-(3-fluoro-4-(2-(5-((3-hydroxypyrrolidin-1-yl)methyl)pyridin-2-yl)thieno[3,2-b]-pyridin-7-yloxy)phenyl)urea]: the IC50 is less than 0.05 µM. Consider `COCCN(CCn1cc(-c2cc3nccc(Oc4ccc(NC(=O)NC5CC5)cc4F)c3s2)cn1)C(=O)CO` [Compound 257, N-(2-(4-(7-(4-(3-cyclopropylureido)-2-fluorophenoxy)thieno[3,2-b]-pyridin-2-yl)-1H-pyrazol-1-yl)ethyl)-2-hydroxy-N-(2-methoxyethyl)acetamide], for which the IC50 is less than 0.05 µM.
